Experiments:
Format in all cases: in vivo
[1] = test system: adult dog ticks (Rhipicephalus sanguineus); experiment: Rhipicephalus sanguineus in vitro contact test with adult brown dog ticks; conditions: coated test tube, after 48 h
Method: Rhipicephalus sanguineus-In Vitro Contact Tests with Adult Brown Dog Ticks
For the coating of the test tubes, 9 mg of active compound are first dissolved in 1 ml of acetone p.a. and then diluted to the desired concentration with acetone p.a. 250 μl of the solution are distributed homogeneously on the inner walls and the base of a 25 ml test tube by turning and rocking on an orbital shaker (rocking rotation at 30 rpm for 2 h). With 900 ppm active compound solution and internal surface 44.7 cm^2, given homogeneous distribution, an area-based dose of 5 μg/cm^2 is achieved.
After the solvent has evaporated off, the tubes are populated with 5-10 adult dog ticks (Rhipicephalus sanguineus), sealed with a perforated plastic lid and incubated in a horizontal position in the dark at room temperature and ambient humidity. After 48 h, efficacy is determined. To this end, the ticks are knocked to the floor of the tube and incubated on a hotplate at 45-50° C. for not more than 5 min. Ticks which remain motionless on the floor or move in such an uncoordinated manner that they are unable to deliberately avoid the heat by climbing upwards are considered to be dead or moribund.
An efficacy of 100% means that all the ticks were dead or moribund. 0% efficacy means that none of the ticks had been harmed.

[2] = test system: Tick nymphs (Amblyomma hebraeum); experiment: Amblyomma hebaraeum test; conditions: application rate 100 ppm; nymphs immersed for one minute; after 42 days
Method: (§1) • Solvent: dimethyl sulphoxide
(§2) To produce an appropriate active ingredient formulation, 10 mg of active ingredient are mixed with 0.5 ml of dimethyl sulphoxide, and the concentrate is diluted with water to the desired concentration.
Tick nymphs (Amblyomma hebraeum) are placed into perforated plastic beakers and immersed in the desired concentration for one minute. The ticks are transferred on filter paper into a Petri dish and stored in a climate-controlled cabinet.
After 42 days, the kill in % is determined. 100% means that all of the ticks have been killed; 0% means that none of the ticks have been killed.

[3] = test system: cattle ticks (Boophilus microplus) Parkhurst strain, SP-resistant; experiment: Boophilus microplus dip test; conditions: application rate 100 ppm, assessed after 7 days
Method: Boophilus microplus-Dip Test
• Test animals: cattle ticks (Boophilus microplus) Parkhurst strain, SP-resistant • Solvent: dimethyl sulphoxide
10 mg of active ingredient are dissolved in 0.5 ml of dimethyl sulphoxide. For the purpose of producing a suitable formulation, the active compound solution is diluted with water to the concentration desired in each case.
This active ingredient formulation is pipetted into tubes. 8-10 engorged adult female cattle ticks (Boophilus microplus) are transferred into a further tube with holes. The tube is immersed into the active compound preparation, and all the ticks are completely wetted. After the liquid has run out, the ticks are transferred on filter discs into plastic dishes and stored in a climate-controlled room.
(§3) Efficacy is assessed after 7 days by laying of fertile eggs. Eggs which are not visibly fertile are stored in a climate-controlled cabinet until the larvae hatch after about 42 days. An efficacy of 100% means that none of the ticks has laid any fertile eggs; 0% means that all the eggs are fertile.

[4] = test system: engorged adult female cattle ticks (Boophilus microplus); experiment: Boophilus microplus injection test; conditions: application rate 20 μg/animal; injection into the abdomen; assessed after 7 days
Method: Boophilus microplus-Injection Test
as §1
To produce an appropriate active ingredient formulation, 10 mg of active ingredient are mixed with 0.5 ml of solvent and the concentrate is diluted with solvent to the desired concentration.
1 μl of the active ingredient solution is injected into the abdomen of 5 engorged adult female cattle ticks (Boophilus microplus). The animals are transferred into dishes and kept in a climate-controlled room.
as §3

[5] = test system: greenhouse red spider mite (Tetranychus urticae); experiment: Tetranychus urticae spray test, OP-resistant; conditions: application rate 100 g/ha; bean leaf discs sprayed; after 6 days
Method: Tetranychus urticae-Spray Test, OP-Resistant
(§4) • Solvent: 78.0 parts by weight of acetone • 1.5 parts by weight of dimethylformamide • Emulsifier: alkylaryl polyglycol ether
(§5) To produce an appropriate active ingredient formulation, 1 part by weight of active ingredient is dissolved using the specified parts by weight of solvent and made up with water containing an emulsifier concentration of 1000 ppm until the desired concentration is attained. To produce further test concentrations, the preparation is diluted with emulsifier-containing water.
Discs of bean leaves (Phaseolus vulgaris) infested by all stages of the greenhouse red spider mite (Tetranychus urticae) are sprayed with an active ingredient formulation of the desired concentration.
After 6 days, efficacy in % is determined. 100% means that all the spider mites have been killed; 0% means that no spider mites have been killed.

[6] = test system: larvae of the mustard beetle (Phaedon cochleariae); experiment: Phaedon cochleariae spray test; conditions: application rate 100 g/ha; Chinese cabbage leaf discs sprayed; after 7 days
Method: Phaedon cochleariae-Spray Test
as §4, §5
Discs of Chinese cabbage leaves (Brassica pekinensis) are sprayed with an active ingredient formulation of the desired concentration and, after drying, populated with larvae of the mustard beetle (Phaedon cochleariae).
After 7 days, efficacy in % is determined. 100% means that all the beetle larvae have been killed; 0% means that no beetle larvae have been killed.

[7] = test system: unfed adult cat fleas (Ctenocephalides felis); experiment: Ctenocephalides felis oral test; conditions: application rate 100 ppm, in citrated cattle blood, after 2 days
Method: Ctenocephalides felis-Oral Test
as §1
To produce a suitable preparation of active compound, 10 mg of active compound are mixed with 0.5 ml of dimethyl sulphoxide. Dilution with citrated cattle blood gives the desired concentration.
About 20 unfed adult cat fleas (Ctenocephalides felis) are placed into a chamber which is closed at the top and bottom with gauze. A metal cylinder whose bottom end is closed with parafilm is placed onto the chamber. The cylinder contains the blood/active compound preparation, which can be imbibed by the fleas through the parafilm membrane.
After 2 days, the kill in % is determined. 100% means that all of the fleas have been killed; 0% means that none of the fleas have been killed.

[8] = test system: green peach aphid (Myzus persicae); experiment: Myzus persicae spray test; conditions: application rate 100 g/ha; Chinese cabbage leaf discs sprayed; after 6 days
Method: Myzus persicae-Spray Test
• Solvent: 78 parts by weight of acetone • 1.5 parts by weight of dimethylformamide • Emulsifier: alkylaryl polyglycol ether
as §5
Discs of Chinese cabbage leaves (Brassica pekinensis) infested by all stages of the green peach aphid (Myzus persicae) are sprayed with an active compound preparation of the desired concentration.
After 6 days, efficacy in % is determined. 100% means that all the aphids have been killed; 0% means that no aphids have been killed.

[9] = test system: caterpillars of the armyworm (Spodoptera frugiperda); experiment: Spodoptera frugiperda spray test; conditions: application rate 100 g/ha; maize leaf discs sprayed; after 7 days
Method: Spodoptera frugiperda-Spray Test
as §4, §5
Leaf discs of maize (Zea mays) are sprayed with an active ingredient formulation of the desired concentration and, after drying, populated with caterpillars of the armyworm (Spodoptera frugiperda).
After 7 days, efficacy in % is determined. 100% means that all the caterpillars have been killed; 0% means that no caterpillars have been killed.

[10] = test system: adult houseflies (Musca domestica); experiment: Musca domestica test; conditions: application rate 100 ppm; sponge with sugar solution; after 2 days
Method: as §1, §2
Vessels containing a sponge treated with sugar solution and the active ingredient formulation of the desired concentration are populated with 10 adult houseflies (Musca domestica).
After 2 days, the kill in % is determined. 100% means that all of the flies have been killed; 0% means that none of the flies have been killed.

[11] = test system: L1 larvae of the Australian sheep blowfly (Lucilia cuprina); experiment: Lucilia cuprina test; conditions: application rate 100 ppm; minced horsemeat; after 2 days
Method: as §1, §2
About 20 L1 larvae of the Australian sheep blowfly (Lucilia cuprina) are transferred into a test vessel containing minced horsemeat and the active ingredient preparation of the desired concentration.
After 2 days, the kill in % is determined. 100% means that all the larvae have been killed; 0% means that no larvae have been killed.

[12] = test system: adult cat fleas (Ctenocephalides felis); experiment: Ctenocephalides felis in vitro contact test with adult cat fleas; conditions: application rate 500 g/ha; coated test tube; after 48 h
Method: Ctenocephalides felis—In Vitro Contact Tests with Adult Cat Fleas
For the coating of the test tubes, 9 mg of active compound are first dissolved in 1 ml of acetone p.a. and then diluted to the desired concentration with acetone p.a. 250 μl of the solution are distributed homogeneously on the inner walls and the base of a 25 ml test tube by turning and rocking on an orbital shaker (rocking rotation at 30 rpm for 2 h). With 900 ppm active compound solution and internal surface 44.7 cm^2, given homogeneous distribution, an area-based dose of […] is achieved.
After the solvent has evaporated off, the tubes are populated with 5-10 adult cat fleas (Ctenocephalides felis), sealed with a perforated plastic lid and incubated in a horizontal position at room temperature and ambient humidity. After 48 h, efficacy is determined. To this end, the test tubes are stood upright and the fleas are knocked to the base of the tube. Fleas which remain motionless at the base or move in an uncoordinated manner are considered to be dead or moribund.
100% efficacy means that all the fleas were dead or moribund. 0% efficacy means that no fleas were harmed.

[13] = test system: southern root-knot nematode (Meloidogyne incognita); experiment: Meloidogyne incognita test; conditions: application rate 20 ppm; lettuce in sand; after 14 days
Method: Meloidogyne incognita Test
• Solvent: 125.0 parts by weight of acetone
To produce an appropriate active ingredient formulation, 1 part by weight of active ingredient is mixed with the stated amount of solvent and the concentrate is diluted with water to the desired concentration.
Vessels are filled with sand, active ingredient solution, an egg/larvae suspension of the southern root-knot nematode (Meloidogyne incognita) and lettuce seeds. The lettuce seeds germinate and the plants develop. The galls develop on the roots.
After 14 days, the nematicidal efficacy in % is determined by the formation of galls. 100% means that no galls were found; 0% means that the number of galls on the treated plants corresponds to the untreated control.

SMILES | efficacy (ticks dead or moribund) ([1]; application rate 100 g/ha) | efficacy (kill of ticks) [2] | efficacy (laying of fertile eggs) [3] | efficacy (laying of fertile eggs) [4] | efficacy (spider mites killed) [5] | efficacy (beetle larvae killed) [6] | efficacy (kill of fleas) [7] | efficacy (aphids killed) [8] | efficacy (caterpillars killed) [9] | efficacy (kill of flies) [10] | efficacy (kill of larvae) [11] | efficacy (fleas dead or moribund) [12] | nematicidal efficacy (formation of galls) [13] | efficacy (ticks dead or moribund) ([1]; application rate 20 g/ha)
Cn1nc(C(F)(F)C(F)(F)F)c(C(F)(F)F)c1-n1cc(-c2cnc(Cl)c(C(=O)NC3(C#N)CC3)c2)nn1 [Ia-1] | 100% | 100% | 100% | 100% | 90% | 100% | 100% | – | – | – | – | – | – | –
Cn1nc(C(F)(F)C(F)(F)F)c(C(F)(F)F)c1-n1cc(-c2cnc(Cl)c(C(=O)NC3CC3)c2)nn1 [Ia-2, 2-Chloro-N-cyclopropyl-5-[1-[2-methyl-5-(1,1,2,2,2-pentafluoroethyl)-4-(trifluoromethyl)pyrazol-3-yl]triazol-4-yl]pyridine-3-carboxamide] | 100% | 100% | 100% | 100% | 100% | 100% | 100% | 90% | 100% | 100% | 100% | – | – | –
Cc1ncc(-c2cn(-c3c(C(F)(F)F)c(C(F)(F)C(F)(F)F)nn3C)nn2)cc1C(=O)NC1(C#N)CC1 [Ia-3] | 100% | – | – | 100% | 100% | 100% | 100% | 100% | – | 80% | 95% | 100% | – | –
Cc1ncc(-c2cn(-c3c(C(F)(F)F)c(C(F)(F)C(F)(F)F)nn3C)nn2)cc1C(=O)NC1CC1 [Ia-4] | 100% | 100% | 100% | 100% | 100% | 100% | 100% | 90% | 100% | 100% | 100% | 100% | 90% | –
COc1ncc(-c2cn(-c3c(C(F)(F)F)c(C(F)(F)C(F)(F)F)nn3C)nn2)cc1C(=O)NC1(C#N)CC1 [Ia-5] | 100% | – | – | 100% | – | 100% | 100% | – | 100% | 100% | 100% | – | – | –
COc1ncc(-c2cn(-c3c(C(F)(F)F)c(C(F)(F)C(F)(F)F)nn3C)nn2)cc1C(=O)NC1CC1 [Ia-6] | – | – | – | 100% | – | 100% | 100% | – | – | 100% | 100% | – | – | 80%

Reference: patent publication US10299478B2, “Pyrazolyltriazolylpyridines as pesticides” (BAYER ANIMAL HEALTH GMBH, priority 2014, dated 2019)
